Experimental findings from patent US11911399B2, “Treating and preventing disease with TMA and TMAO lowering agents” (The Cleveland Clinic Foundation, priority 2014, dated 2024) are described below.

Molecules are shown by their SMILES. Entries after “also recorded” stand apart in the source; their conditions may differ. Like-named read-outs stand apart in the source and are kept apart here.

Data set [1] is described as follows: Plasma TMAO in mice on chow or choline diet with or without ASA (LC/MS/MS). To be noted: both diets (chow and choline), p<0.05 in each diet. It is filed as in vivo, C57BL/6J females mice.
In the next data set the test system is platelet aggregation. Description: Platelet aggregometry with submaximal ADP stimulation in human subjects. As to the method: In further works, human volunteer subject were enrolled in the following study. Individuals were examined at baseline for plasma TMAO and blood drawn for platelet aggregometry studies with submaximal ADP stimulation. Subjects were examined both naïve to aspirin, and then at different time after taking chronic aspirin (81 mg daily) for at least a month. […] After washout period of at least 4 months with no choline supplement, subjects were placed on ASA daily (81 mg) and after a month of ASA, the baseline TMAO level and platelet aggregmetry measure monitored. Then, choline supplementation daily was again resumed.
Choline supplement was used in subjects (choline bitartrate, 2×500 mg/day=choline 2×205.7 mg/day), for 2 month period. Samples were collected at baseline and monthly blood were draw (1,2 months). Plasma levels of TMAO were measured and platelet aggregation in response to 5 uM ADP were measured.

For data set [2] the following is noted: omnivores, ASA 81 mg daily for at least a month, then daily choline supplementation.
The subject of the next data set is microbial TMA lyase. Kind of data set: TMA lyase activity of Proteus mirabilis lysate (TMA production from d9 substrates). It is filed as biochemical. As to the method: Using PM lysate (PM that is lysed in a French press to break open the cell wall and release enzyme contents) as the enzyme source, the TMA lyase activity (TMA producing activity) was examined in incubations with either d9(trimethyl)choline as substrate, or […] (GPC) as substrate. […] A further examination of the impact of ASA on TMA lyase activity by PM lysate was undertaken. Three mg of PM lysate was incubated with 25 uM choline and 25 uM choline(d9) in 2 ml PBS at 37 C for 20 hours. In FIG. 7, the dotted lines at 81 mg and 320 mg ASA represent reported steady state plasma levels of aspirin reported at those doses in human subjects. […] In light of this, in some embodiments, enteric coated aspirin or aspirin derivatives that have delayed absorption may be employed to treat disease since they would dissolve in the intestines past the stomach, such that the level of ASA or derivative delivered to the gut lumen will be higher. There exist even longer delayed release formulations of medications that could also be used.

Data set [3] deals with in vivo thrombosis potential.
The test system of data set [4] is parenchymal fibrosis and collagen deposition in mouse kidneys. Kind of data set: Renal fibrosis, Mason trichrome quantitative morphometry. The conditions noted are these: 6 weeks diet: TMAO 0.12% or choline 1.0% vs chow. It is filed as in vivo, C57BL/6J mice. The source says:
Quantitative Histologic Techniques.

A further data set has as its system SMAD3. Kind of data set: Immunoblot of Smad3 phosphorylation in mouse kidneys. It is filed as in vivo, C57BL/6J mice. To be noted: 6 weeks diet: TMAO 0.12% or choline 1.0% vs chow. The source says: (§1) Preparation of tissue homogenates and immunoblotting.
On the technique in general: In western blotting, separated proteins are transferred to a membrane and probed.

The subject of the next data set is cystatin C. Kind of data set: Cystatin C levels in mice (ELISA). The conditions noted are these: 16 weeks diet: TMAO 0.12% or choline 1.0% vs chow. The format is in vivo.
The subject of another data set is KIM-1. Description: Immunoblot of KIM-1 expression in mouse kidneys. The format is in vivo, C57BL/6J mice. The conditions noted are these: 6 weeks diet: TMAO 0.12% or choline 1.0% vs chow.
Description: as §1

`CC(=O)Oc1ccccc1C(=O)O` [ASA, acetylsalicylic acid]: the “reduction in TMAO level by addition of ASA” value in data set [1] is on record as “approx. 2 fold”. Besides, in the data set with platelet aggregation (omnivores, ASA 81 mg daily, submaximal ADP stimulation), the “rise in platelet aggregation on choline supplementation” value is on record as “corresponding rise in platelet aggregation too was blunted”. For the same molecule, the “rise in plasma TMAO on choline supplementation” value in data set [2] is on record as “The impact of the choline diet on rise in TMAO was blunted”. In addition, the TMA lyase inhibition entry in the data set on microbial TMA lyase (3 mg PM lysate, 25 uM choline and 25 uM choline(d9), 37 C, 20 hours, at ASA plasma level anticipated for 320 mg dose) is listed as “approximately 40%”. Besides, in the data set on microbial TMA lyase (PM lysate, d9(trimethyl)choline as substrate, physiological range of ASA), the “inhibition of TMA production (choline TMA lyase activity)” value is listed as “inhibited TMA production; also recorded: inhibits”. Also, the “inhibition of TMA production (GPC TMA lyase activity)” value in the data set on microbial TMA lyase (PM lysate, d9(trimethyl)glycerophosphocholine (GPC) as substrate, physiological range of ASA) is reported as “inhibited TMA production; also recorded: inhibits”. Besides, in data set [3] (choline diet+ASA group vs control (chow and no ASA)), the “time to blood flow cessation” value is recorded as “no difference in time to blood flow cessation relative to the control”.
Regarding `C[N+](C)(C)CCO` [choline], the “parenchymal fibrosis and collagen deposition” value in data set [4] is “corresponding increases in parenchymal fibrosis and collagen deposition”. Moreover, the “phosphorylation of Smad3 (serine 423/425)” value with SMAD3 is “enhanced phosphorylation of Smad3”. In addition, in the data set with cystatin C, the “serum cystatin C levels” value is reported as “increased serum cystatin C levels compared to chow-fed mice”. Further, the platelet aggregometry entry in the data set on platelet aggregation (human, in vivo) is “corresponding increases in platelet aggregometrry”. Besides, in the data set on KIM-1, the “kidney injury marker-1 (KIM-1)” value is recorded as “increased kidney injury marker-1”. In addition, the “time to blood flow cessation” value in data set [3] (choline diet alone vs chow, p<0.0001) is “reduces the time to blood flow cessation”.
As to `C[N+](C)(C)[O-]` [TMAO, trimethylamine N-oxide], the “parenchymal fibrosis and collagen deposition” value in data set [4] was “corresponding increases in parenchymal fibrosis and collagen deposition”. Also, the “phosphorylation of Smad3 (serine 423/425)” value in the data set with SMAD3 was “enhanced phosphorylation of Smad3”. The “serum cystatin C levels” value in the data set with cystatin C was “increased serum cystatin C levels compared to chow-fed mice”. Further, the “kidney injury marker-1 (KIM-1)” value in the data set with KIM-1 is “increased kidney injury marker-1”.
